Experimental data reported in ChEMBL document CHEMBL1201862, “PubChem BioAssay data set” (2004).
Calls of active or inactive are those of the source.

Experiments:
Cytochrome P450 2C19 = Cytochrome P450 2C19 (Homo sapiens, UniProt P33261); experiment: Cytochrome panel assay with activity outcomes. Panel member name: p450-cyp2c19 Compounds with AC50 equal or less than 10 uM are considered active; format: functional
[1] = inhibitors of Vif binding to APOBEC3G peptide, primary screen, biochemical, TR-FRET, GST-Vif 1-94, biotin-A3G peptide, dose response retest (AID 1117319); format: functional;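 also: TR-FRET signal of purified GST-Vif binding a biotinylated A3G peptide; inhibitors lower the FRET signal by blocking Vif and A3G binding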
[2] = target: T1, Short transient receptor potential channel 4 (Mus musculus, UniProt Q9QUQ5); experiment: mouse TRPC4 channel activators, dose response, cell-based, HEK293 TRPC4/mu-opioid, Fluo-4 calcium (AID 434937); format: functional
T1 sequence (Q9QUQ5 whole entry): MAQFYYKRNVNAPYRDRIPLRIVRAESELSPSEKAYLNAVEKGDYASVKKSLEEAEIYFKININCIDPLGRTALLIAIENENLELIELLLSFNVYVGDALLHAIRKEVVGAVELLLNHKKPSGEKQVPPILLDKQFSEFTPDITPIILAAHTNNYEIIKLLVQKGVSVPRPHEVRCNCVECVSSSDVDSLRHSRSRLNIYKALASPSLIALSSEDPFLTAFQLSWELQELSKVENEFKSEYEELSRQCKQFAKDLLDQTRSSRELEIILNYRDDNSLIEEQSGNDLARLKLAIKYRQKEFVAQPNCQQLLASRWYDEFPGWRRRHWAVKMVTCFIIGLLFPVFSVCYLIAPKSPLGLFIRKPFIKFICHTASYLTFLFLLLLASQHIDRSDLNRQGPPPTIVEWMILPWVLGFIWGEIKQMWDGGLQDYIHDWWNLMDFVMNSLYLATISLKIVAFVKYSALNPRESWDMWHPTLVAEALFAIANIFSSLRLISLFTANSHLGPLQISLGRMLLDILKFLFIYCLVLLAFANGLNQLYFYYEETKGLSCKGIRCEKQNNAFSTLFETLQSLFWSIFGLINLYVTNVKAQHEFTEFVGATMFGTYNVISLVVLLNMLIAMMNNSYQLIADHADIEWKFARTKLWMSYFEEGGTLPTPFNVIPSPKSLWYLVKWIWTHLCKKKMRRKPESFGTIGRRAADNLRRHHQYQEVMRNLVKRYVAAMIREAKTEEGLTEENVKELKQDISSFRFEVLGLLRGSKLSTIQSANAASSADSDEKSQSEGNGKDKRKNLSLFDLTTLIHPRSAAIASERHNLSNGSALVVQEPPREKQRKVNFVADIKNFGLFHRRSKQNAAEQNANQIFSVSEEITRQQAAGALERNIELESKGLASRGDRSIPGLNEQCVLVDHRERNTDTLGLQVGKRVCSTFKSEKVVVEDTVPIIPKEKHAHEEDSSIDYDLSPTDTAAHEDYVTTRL

cells [3] = format: functional, cell-based
cells [4] = format: functional, cell-based; remark: listed apart in the source
[5] = target: Mitogen-activated protein kinase 10 (Homo sapiens, UniProt P53779); experiment: Dose response biochemical screening assay for inhibitors of c-Jun N-Terminal Kinase 3 (JNK3). [Related pubchem assays: 746 ]
[6] = target: Peroxisome proliferator-activated receptor gamma/Nuclear receptor coactivator 2 (Homo sapiens, UniProt P37231); format: functional;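 also: agonist potency for raising coactivator recruitment to the receptor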
[7] = target: Peroxisome proliferator-activated receptor gamma/Nuclear receptor coactivator 3 (Homo sapiens, UniProt P37231); format: functional;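 also: agonist potency for raising coactivator recruitment to the receptor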
[8] = target: Peroxisome proliferator-activated receptor gamma/Nuclear receptor coactivator 1 (Homo sapiens, UniProt P37231); format: functional;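 also: agonist potency as compounds enhance coactivator SRC-1 recruitment to PPARgamma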
[9] = target: T2, Corticotropin-releasing factor receptor 2/Corticotropin-releasing factor-binding protein (Homo sapiens, UniProt P24387+Q13324); experiment: activators of CRF receptor 2 with binding protein – uHTS hits, confirmation (AID 602473); format: functional; conditions: read-out: EC50_Mean
T2 sequence (Q13324 whole entry): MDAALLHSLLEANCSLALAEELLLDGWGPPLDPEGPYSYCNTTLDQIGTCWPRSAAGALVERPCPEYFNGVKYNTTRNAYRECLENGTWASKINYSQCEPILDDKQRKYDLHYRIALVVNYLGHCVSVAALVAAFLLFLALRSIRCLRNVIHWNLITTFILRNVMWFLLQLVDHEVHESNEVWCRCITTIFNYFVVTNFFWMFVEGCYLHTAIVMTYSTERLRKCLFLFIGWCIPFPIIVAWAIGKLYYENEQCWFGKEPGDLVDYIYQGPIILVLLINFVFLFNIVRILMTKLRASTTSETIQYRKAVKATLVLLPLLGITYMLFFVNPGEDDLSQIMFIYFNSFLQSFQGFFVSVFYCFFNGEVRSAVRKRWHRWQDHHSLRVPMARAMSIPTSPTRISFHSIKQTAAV
T2 sequence (P24387 whole entry): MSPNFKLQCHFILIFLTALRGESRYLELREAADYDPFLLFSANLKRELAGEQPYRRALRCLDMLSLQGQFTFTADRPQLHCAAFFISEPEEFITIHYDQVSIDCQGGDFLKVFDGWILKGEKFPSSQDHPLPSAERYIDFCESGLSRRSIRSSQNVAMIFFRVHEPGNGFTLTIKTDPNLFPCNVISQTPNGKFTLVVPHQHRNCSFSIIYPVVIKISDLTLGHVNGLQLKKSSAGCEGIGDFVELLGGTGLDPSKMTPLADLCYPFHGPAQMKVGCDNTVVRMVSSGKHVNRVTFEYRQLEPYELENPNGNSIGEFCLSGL

[10] = target: T3, Rac GTPase-activating protein 1 (Homo sapiens, UniProt Q9H0H5); experiment: MgcRacGAP GTPase-activating activity inhibitors, confirmation, biochemical, ADP Hunter fluorescence, primary and confirmatory (AID 624330); format: functional
T3 sequence (Q9H0H5 whole entry): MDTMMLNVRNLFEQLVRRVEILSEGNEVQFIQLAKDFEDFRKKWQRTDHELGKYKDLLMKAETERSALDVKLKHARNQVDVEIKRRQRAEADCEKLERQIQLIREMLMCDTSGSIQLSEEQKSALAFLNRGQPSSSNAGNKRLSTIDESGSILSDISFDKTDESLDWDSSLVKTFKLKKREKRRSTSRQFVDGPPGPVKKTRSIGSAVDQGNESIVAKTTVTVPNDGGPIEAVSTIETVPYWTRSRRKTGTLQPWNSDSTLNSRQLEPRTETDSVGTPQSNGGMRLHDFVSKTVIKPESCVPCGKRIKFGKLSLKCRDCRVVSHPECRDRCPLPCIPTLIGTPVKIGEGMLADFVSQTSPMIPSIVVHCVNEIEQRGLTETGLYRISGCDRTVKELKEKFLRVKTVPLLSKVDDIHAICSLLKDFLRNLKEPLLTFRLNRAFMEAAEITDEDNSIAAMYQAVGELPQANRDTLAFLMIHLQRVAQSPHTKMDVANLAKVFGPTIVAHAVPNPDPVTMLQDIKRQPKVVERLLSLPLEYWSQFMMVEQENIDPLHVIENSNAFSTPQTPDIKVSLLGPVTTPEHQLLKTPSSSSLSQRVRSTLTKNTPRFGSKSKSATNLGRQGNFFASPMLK

[11] = CRF-BP/CRF-R2 complex antagonists, dose response, cell-based, uHTS hits, 384-well (AID 651639); format: functional, Homo sapiens; conditions: read-out: IC50_Mean
[12] = target: T2, Corticotropin-releasing factor receptor 2/Corticotropin-releasing factor-binding protein; experiment: Dose Response confirmation of uHTS hits for small molecule antagonists of the CRF-binding protein and CRF-R2 receptor complex.; format: functional; conditions: read-out: IC50_Mean
Vero = Vero cell cytotoxicity, cytotoxicity control for flavivirus capping enzyme inhibitors (AID 588742); format: functional; conditions: Chlorocebus sabaeus
[13] = target: T4, Probable nicotinate-nucleotide adenylyltransferase (Staphylococcus aureus (strain N315), UniProt P65502); format: functional, Staphylococcus aureus subsp. aureus N315;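 as to IC50 Mean: confirmatory dose-response retesting of NadD inhibitor hits first found in an ultra-high-throughput screen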
[14] = target: T5, Calpain-2 catalytic subunit (Sus scrofa, UniProt P43367); experiment: pig calpain II inhibitor potency, dose response, biochemical, fluorogenic peptide substrate (AID 1420); format: functional
T5 sequence (P43367 whole entry): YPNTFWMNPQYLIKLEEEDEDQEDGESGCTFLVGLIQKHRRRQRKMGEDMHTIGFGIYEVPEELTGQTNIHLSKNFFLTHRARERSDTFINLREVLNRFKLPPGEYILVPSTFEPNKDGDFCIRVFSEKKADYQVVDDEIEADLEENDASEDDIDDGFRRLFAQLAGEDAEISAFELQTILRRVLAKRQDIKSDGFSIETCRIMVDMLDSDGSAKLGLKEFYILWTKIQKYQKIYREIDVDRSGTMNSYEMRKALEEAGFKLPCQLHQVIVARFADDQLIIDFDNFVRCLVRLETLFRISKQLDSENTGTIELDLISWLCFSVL

[15] = target: T4, Probable nicotinate-nucleotide adenylyltransferase; format: functional, Staphylococcus aureus subsp. aureus N315; conditions: read-out: IC50_Mean
[16] = target: T6, DNA repair protein RAD52 homolog (Homo sapiens, UniProt P43351); format: functional, biochemical
T6 sequence (P43351 whole entry): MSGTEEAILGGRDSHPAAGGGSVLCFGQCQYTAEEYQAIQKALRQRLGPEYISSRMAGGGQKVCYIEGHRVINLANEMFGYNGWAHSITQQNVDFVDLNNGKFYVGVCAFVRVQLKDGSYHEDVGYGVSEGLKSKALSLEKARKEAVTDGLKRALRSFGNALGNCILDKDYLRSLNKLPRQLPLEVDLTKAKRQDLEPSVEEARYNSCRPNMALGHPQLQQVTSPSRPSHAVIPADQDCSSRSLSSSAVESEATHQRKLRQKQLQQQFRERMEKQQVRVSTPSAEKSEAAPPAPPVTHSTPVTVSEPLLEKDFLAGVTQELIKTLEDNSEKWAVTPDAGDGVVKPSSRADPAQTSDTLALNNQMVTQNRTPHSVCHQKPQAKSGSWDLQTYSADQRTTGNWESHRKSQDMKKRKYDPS

H9c2 = experiment: cells; format: functional, cell-based; conditions: Rattus norvegicus, H9c2, Myocardium;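 also: confirmatory concentration-response retest of ultra-high-throughput screening hits for modulation of myocardial damage; cell death induced by hydrogen peroxide oxidative stress; compound pretreatment for 60 min then peroxide exposure for 2 h; potency is for protecting the cells against peroxide damage rather than for killing them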
H4 = experiment: Luminescence Cell-Based Dose Response HTS to Identify Activators of 5'UTR Stem-Loop Driven Prion Protein mRNA Translation in H4 Neuroglioblastoma Cells. [Related pubchem assays: 1829 (Project Summary), 1814 (Primary HTS)]; format: functional; conditions: Homo sapiens
[17] = Luminescence Cell-Based Dose Confirmation HTS to Identify Activators of 5'UTR Stem-Loop Driven Alpha-Synuclein mRNA Translation in H4 Neuroglioblastoma Cells. [Related pubchem assays: 1829 (Project Summary), 1814 (Primary HTS)]; format: functional
[18] = Luminescence Cell-Based Dose Response HTS to Identify Activators of Luciferase Translation or Activity in H4 […] Cells. [Related pubchem assays: 1829 (Project Summary), 1814 (Primary HTS)]; format: functional
[19] = inhibitors of intracellular T. cruzi replication, confirmation, NIH3T3 host cells, beta-gal luminescence (AID 2044); format: functional, cell-based;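 also: intracellular parasites grown in NIH/3T3 mouse fibroblasts as host cells; luminescent beta-galactosidase reporter signal from transgenic T. cruzi replicating inside host cells; inhibitors lower the luminescence signal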
[20] = cytotoxicity toward NIH3T3 fibroblasts, dose response, counter-screen, cell-based, ATP luminescence, mouse fibroblasts (AID 2010); format: functional;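 also: cells exposed to compound for about 90 hours before reading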
[21] = target: Eukaryotic translation initiation factor 4E (Mus musculus, UniProt P63073); experiment: eIF4E–eIF4G protein interaction inhibitors, dose response, biochemical, TR-FRET (AID 855); format: functional;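 also: potency for disrupting eIF4E binding to eIF4GI seen as loss of FRET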

Chain of Peroxisome proliferator-activated receptor gamma/Nuclear receptor coactivator 2 (P37231 whole entry): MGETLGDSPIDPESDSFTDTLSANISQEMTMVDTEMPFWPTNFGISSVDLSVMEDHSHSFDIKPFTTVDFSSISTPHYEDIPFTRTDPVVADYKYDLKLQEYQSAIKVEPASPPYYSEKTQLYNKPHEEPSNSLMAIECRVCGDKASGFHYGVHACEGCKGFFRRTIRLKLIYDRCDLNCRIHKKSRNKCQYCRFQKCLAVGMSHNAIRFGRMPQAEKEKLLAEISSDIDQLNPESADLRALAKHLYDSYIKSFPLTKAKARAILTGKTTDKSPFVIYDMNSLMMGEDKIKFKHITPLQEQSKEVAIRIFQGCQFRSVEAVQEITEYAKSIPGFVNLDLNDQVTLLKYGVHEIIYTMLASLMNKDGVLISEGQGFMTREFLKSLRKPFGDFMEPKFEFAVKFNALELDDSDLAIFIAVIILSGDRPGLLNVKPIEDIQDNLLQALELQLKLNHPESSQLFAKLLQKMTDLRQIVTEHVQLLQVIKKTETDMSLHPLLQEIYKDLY
Chain of Peroxisome proliferator-activated receptor gamma/Nuclear receptor coactivator 2 (Q15596 whole entry, further chain): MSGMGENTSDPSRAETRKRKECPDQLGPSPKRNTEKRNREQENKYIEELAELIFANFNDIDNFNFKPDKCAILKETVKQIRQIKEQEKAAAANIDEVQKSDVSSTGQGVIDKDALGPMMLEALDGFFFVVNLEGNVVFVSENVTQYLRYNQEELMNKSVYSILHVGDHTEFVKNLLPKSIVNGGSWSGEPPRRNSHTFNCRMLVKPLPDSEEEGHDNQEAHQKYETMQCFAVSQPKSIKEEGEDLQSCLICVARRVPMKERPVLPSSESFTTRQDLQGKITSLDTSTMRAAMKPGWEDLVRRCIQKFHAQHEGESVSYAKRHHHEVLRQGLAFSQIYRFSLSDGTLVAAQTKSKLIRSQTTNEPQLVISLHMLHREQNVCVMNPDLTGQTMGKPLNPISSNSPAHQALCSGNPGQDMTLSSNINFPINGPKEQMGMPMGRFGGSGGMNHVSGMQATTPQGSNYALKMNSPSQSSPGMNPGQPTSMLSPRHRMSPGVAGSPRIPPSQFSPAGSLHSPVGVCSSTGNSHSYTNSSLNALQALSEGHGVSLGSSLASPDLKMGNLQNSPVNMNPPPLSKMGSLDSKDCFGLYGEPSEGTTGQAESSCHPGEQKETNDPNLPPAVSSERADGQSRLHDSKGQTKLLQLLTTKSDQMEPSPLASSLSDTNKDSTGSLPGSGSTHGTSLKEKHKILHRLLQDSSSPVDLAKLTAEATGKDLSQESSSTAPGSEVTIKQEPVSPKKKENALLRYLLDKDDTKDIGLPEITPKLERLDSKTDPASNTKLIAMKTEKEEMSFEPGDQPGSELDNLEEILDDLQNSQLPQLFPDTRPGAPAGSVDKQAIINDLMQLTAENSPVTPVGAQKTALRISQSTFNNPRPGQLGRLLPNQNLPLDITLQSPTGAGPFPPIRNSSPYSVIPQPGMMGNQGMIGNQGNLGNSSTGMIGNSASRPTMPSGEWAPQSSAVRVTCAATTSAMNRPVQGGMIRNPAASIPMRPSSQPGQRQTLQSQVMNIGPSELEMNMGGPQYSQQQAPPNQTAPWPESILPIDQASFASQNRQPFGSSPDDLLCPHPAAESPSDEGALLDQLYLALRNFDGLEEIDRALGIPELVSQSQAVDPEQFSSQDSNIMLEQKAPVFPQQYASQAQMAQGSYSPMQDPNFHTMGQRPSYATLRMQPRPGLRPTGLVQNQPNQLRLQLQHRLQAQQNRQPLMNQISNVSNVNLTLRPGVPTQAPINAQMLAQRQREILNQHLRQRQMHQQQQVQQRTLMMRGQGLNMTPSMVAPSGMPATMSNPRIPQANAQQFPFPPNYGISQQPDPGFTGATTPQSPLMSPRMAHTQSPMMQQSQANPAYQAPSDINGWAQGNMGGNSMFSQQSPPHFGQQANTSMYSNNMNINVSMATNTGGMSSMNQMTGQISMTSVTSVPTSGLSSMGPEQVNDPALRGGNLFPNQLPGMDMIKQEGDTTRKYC
Chain of Peroxisome proliferator-activated receptor gamma/Nuclear receptor coactivator 3 (P37231 whole entry): as the sequence (P37231 whole entry) above
Chain of Peroxisome proliferator-activated receptor gamma/Nuclear receptor coactivator 3 (Q9Y6Q9 whole entry, further chain): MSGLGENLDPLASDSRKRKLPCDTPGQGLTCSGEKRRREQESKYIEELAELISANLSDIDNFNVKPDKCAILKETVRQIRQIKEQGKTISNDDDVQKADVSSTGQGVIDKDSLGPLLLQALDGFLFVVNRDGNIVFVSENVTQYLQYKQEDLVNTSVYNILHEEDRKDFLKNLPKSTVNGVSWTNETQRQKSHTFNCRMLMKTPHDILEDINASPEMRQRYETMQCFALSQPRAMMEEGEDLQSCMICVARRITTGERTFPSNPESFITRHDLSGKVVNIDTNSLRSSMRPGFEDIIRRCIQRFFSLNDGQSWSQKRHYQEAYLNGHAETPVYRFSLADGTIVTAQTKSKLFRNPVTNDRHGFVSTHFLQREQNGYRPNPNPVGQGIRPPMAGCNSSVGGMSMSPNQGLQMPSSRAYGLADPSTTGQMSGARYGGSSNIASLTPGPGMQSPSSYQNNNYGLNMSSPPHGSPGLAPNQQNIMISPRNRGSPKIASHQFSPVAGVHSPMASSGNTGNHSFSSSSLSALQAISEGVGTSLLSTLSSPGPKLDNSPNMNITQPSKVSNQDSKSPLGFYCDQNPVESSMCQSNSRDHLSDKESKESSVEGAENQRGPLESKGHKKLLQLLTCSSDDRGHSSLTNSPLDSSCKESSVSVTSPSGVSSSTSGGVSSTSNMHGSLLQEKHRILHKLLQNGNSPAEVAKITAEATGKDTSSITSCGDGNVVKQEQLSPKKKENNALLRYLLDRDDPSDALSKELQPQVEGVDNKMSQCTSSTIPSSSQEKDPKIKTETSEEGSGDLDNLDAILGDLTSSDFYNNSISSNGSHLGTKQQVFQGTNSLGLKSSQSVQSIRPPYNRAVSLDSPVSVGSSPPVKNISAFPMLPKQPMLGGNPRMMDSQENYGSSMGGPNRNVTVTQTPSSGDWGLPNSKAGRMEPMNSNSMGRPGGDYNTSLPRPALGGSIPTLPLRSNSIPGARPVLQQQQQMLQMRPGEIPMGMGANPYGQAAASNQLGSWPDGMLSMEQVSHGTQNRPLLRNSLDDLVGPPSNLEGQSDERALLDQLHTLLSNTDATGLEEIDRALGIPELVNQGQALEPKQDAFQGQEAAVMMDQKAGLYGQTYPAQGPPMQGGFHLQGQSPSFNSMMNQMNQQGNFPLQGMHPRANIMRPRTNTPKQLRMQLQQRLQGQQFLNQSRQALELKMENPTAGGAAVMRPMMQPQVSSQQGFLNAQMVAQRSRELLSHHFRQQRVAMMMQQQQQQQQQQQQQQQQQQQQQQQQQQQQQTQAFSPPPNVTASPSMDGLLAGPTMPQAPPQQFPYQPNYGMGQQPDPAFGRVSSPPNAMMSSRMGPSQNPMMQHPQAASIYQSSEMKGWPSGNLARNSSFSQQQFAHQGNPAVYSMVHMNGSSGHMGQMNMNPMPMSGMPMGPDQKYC
Chain of Mitogen-activated protein kinase 10 (P53779 whole entry): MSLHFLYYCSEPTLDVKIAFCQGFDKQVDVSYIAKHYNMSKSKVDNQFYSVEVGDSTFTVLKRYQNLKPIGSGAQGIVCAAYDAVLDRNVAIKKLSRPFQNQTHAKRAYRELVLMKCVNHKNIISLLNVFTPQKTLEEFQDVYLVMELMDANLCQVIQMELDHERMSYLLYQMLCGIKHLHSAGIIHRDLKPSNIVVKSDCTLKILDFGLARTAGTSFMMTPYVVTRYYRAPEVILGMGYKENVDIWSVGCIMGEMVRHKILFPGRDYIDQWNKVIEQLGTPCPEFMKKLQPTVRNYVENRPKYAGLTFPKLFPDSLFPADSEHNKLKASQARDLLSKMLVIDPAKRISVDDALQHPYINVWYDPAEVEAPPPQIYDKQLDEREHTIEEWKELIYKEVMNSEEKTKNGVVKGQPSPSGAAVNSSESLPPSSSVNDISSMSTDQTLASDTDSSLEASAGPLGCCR
T4 sequence (P65502 whole entry): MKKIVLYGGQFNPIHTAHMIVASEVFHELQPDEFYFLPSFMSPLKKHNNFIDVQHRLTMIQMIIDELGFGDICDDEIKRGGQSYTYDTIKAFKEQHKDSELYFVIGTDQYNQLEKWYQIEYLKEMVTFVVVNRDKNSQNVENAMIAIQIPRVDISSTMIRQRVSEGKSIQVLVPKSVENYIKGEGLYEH
Chain of Cytochrome P450 2C19 (P33261 whole entry): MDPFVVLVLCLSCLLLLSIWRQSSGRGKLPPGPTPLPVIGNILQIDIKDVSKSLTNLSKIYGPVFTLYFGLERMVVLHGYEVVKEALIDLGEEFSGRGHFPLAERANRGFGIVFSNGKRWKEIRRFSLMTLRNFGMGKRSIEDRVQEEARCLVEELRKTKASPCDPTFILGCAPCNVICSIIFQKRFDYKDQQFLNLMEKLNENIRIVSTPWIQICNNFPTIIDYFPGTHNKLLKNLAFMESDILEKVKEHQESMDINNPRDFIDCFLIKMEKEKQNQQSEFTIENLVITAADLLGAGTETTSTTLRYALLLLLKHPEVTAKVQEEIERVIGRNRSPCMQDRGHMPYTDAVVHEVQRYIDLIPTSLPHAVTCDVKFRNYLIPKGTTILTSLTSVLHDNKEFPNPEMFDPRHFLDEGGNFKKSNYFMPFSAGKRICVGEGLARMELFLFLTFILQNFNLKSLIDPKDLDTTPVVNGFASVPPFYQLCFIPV

Structure (SMILES): Cc1sc(NC(=O)c2ccccc2)c(C(=O)NCCN(C)C)c1C
- AC50 (Cytochrome P450 2C19): inconclusive
- IC50 [1]: > 100 µM (active)
- EC50 [2]: 3.35 µM (active)

Structure (SMILES): O=C(N[C@H](C(=O)N1CCC[C@H]1C(=O)NCCc1ccccc1Cl)c1ccccc1)c1cccs1
- EC50 (cells [3]): > 29.9 µM (inactive)
- IC50 (cells [4]): > 29.9 µM (inactive)

Structure (SMILES): COc1ccc(COC(=O)c2[nH]nc3ccccc23)cc1F
- IC50 [5]: 11.4 µM (not active)

Structure (SMILES): O=C(C1=C[C@@H](c2ccc(C(F)(F)F)cc2)C[C@@H](OCc2ccc(CO)cc2)O1)N1CCOCC1
- EC50 [6]: > 79.4 µM (not active)
- EC50 [7]: > 79.4 µM (not active)
- EC50 [8]: > 79.4 µM (not active)

Structure (SMILES): O=C(N/C(=C/c1ccc(Cl)cc1)c1nc2ccccc2[nH]1)c1ccco1
- IC50 [1]: > 100 µM (active)

Structure (SMILES): COc1cc(C=C2C(=O)c3ccccc3C2=O)cc(OC)c1OC
- EC50 [9]: > 53 µM (inactive)
- IC50 [10]: 126 µM (active)
- IC50 [11]: 1.46 µM (active)
- IC50 [12]: 1.59 µM (active)

Structure (SMILES): CC(C)n1c(=S)[nH]c2scc(-c3cccs3)c2c1=O
- CC50 (Vero): > 40 µM (active)
- IC50 [13]: 13.5 µM (active)
- IC50 [14]: 18.2 µM (not active)
- IC50 [15]: 34 µM (active)

Structure (SMILES): CN(C)CCCNc1ccc(-c2nnc(O)c3ccccc23)cc1[N+](=O)[O-]
- AC50 [16]: 20.5 µM (active)
- IC50 (H9c2): 13.9 µM (active)

Structure (SMILES): COc1ccccc1OCc1nc2ccccc2[nH]1
- EC50 [6]: > 79.4 µM (not active)
- EC50 [7]: > 79.4 µM (not active)
- EC50 [8]: > 79.4 µM (not active)

Structure (SMILES): O=C1CC(c2ccco2)CC(=O)C1=CNc1ccc(Br)cc1 (configuration not stated)
- IC50 [1]: > 100 µM (active)

Structure (SMILES): Cc1ccc(-c2csc(NC(=O)Cc3cccs3)n2)cc1C
- EC50 (H4): 15.1 µM (active)
- IC50 [1]: > 100 µM (active)
- EC50 [17]: 10.2 µM (active)
- EC50 [18]: 28.7 µM (active)

Structure (SMILES): CN1CCN(CCCNC(=O)c2ccc(/C=C3\Sc4ccccc4N(Cc4ccccc4F)C3=O)cc2)CC1
- AC50 [16]: 5.23 µM (active)
- EC50 [19]: 0.3 µM (active)
- EC50 [20]: 6.91 µM (active)
- IC50 [21]: 50 µM (inactive)

Structure (SMILES): COc1cc2c(cc1OC)CN1CCc3cc(OC)c(OC)cc3C1C2 (configuration not stated)
- AC50 [16]: 4.49 µM (active)

Structure (SMILES): Cc1nn(-c2ccccc2)c(N)c1Sc1ccc([N+](=O)[O-])cc1
- EC50 [9]: > 53 µM (inactive)
- IC50 [11]: 12.8 µM (active)
- IC50 [12]: < 0.368 µM (active)

Structure (SMILES): Cn1ncc2c(NCc3ccccc3)ncnc21
- IC50 [5]: > 31 µM (not active)
